Measurements from patent US20220233512A1, “INHIBITING AN IMMUNE RESPONSE MEDIATED BY ONE OR MORE OF TLR2, RAGE, CCR5, CXCR4 AND CD4” (priority 2020, published 2022).

Key:
FLNA-TLR2 association = target: T1, FLNA-TLR2 association (Homo sapiens, UniProt P21333); experiment: FLNA-TLR2 association in human postmortem frontal cortex slices; assay type: cell-based; conditions: 1 or 10 nM compound; LTA-SA, PGN-SA or Ab42; p<0.01
T1 construct: Human postmortem frontal cortex slices; from tissue; host or cells: human postmortem frontal cortex slices
T1 sequence (P21333 2-2647 limits assumed): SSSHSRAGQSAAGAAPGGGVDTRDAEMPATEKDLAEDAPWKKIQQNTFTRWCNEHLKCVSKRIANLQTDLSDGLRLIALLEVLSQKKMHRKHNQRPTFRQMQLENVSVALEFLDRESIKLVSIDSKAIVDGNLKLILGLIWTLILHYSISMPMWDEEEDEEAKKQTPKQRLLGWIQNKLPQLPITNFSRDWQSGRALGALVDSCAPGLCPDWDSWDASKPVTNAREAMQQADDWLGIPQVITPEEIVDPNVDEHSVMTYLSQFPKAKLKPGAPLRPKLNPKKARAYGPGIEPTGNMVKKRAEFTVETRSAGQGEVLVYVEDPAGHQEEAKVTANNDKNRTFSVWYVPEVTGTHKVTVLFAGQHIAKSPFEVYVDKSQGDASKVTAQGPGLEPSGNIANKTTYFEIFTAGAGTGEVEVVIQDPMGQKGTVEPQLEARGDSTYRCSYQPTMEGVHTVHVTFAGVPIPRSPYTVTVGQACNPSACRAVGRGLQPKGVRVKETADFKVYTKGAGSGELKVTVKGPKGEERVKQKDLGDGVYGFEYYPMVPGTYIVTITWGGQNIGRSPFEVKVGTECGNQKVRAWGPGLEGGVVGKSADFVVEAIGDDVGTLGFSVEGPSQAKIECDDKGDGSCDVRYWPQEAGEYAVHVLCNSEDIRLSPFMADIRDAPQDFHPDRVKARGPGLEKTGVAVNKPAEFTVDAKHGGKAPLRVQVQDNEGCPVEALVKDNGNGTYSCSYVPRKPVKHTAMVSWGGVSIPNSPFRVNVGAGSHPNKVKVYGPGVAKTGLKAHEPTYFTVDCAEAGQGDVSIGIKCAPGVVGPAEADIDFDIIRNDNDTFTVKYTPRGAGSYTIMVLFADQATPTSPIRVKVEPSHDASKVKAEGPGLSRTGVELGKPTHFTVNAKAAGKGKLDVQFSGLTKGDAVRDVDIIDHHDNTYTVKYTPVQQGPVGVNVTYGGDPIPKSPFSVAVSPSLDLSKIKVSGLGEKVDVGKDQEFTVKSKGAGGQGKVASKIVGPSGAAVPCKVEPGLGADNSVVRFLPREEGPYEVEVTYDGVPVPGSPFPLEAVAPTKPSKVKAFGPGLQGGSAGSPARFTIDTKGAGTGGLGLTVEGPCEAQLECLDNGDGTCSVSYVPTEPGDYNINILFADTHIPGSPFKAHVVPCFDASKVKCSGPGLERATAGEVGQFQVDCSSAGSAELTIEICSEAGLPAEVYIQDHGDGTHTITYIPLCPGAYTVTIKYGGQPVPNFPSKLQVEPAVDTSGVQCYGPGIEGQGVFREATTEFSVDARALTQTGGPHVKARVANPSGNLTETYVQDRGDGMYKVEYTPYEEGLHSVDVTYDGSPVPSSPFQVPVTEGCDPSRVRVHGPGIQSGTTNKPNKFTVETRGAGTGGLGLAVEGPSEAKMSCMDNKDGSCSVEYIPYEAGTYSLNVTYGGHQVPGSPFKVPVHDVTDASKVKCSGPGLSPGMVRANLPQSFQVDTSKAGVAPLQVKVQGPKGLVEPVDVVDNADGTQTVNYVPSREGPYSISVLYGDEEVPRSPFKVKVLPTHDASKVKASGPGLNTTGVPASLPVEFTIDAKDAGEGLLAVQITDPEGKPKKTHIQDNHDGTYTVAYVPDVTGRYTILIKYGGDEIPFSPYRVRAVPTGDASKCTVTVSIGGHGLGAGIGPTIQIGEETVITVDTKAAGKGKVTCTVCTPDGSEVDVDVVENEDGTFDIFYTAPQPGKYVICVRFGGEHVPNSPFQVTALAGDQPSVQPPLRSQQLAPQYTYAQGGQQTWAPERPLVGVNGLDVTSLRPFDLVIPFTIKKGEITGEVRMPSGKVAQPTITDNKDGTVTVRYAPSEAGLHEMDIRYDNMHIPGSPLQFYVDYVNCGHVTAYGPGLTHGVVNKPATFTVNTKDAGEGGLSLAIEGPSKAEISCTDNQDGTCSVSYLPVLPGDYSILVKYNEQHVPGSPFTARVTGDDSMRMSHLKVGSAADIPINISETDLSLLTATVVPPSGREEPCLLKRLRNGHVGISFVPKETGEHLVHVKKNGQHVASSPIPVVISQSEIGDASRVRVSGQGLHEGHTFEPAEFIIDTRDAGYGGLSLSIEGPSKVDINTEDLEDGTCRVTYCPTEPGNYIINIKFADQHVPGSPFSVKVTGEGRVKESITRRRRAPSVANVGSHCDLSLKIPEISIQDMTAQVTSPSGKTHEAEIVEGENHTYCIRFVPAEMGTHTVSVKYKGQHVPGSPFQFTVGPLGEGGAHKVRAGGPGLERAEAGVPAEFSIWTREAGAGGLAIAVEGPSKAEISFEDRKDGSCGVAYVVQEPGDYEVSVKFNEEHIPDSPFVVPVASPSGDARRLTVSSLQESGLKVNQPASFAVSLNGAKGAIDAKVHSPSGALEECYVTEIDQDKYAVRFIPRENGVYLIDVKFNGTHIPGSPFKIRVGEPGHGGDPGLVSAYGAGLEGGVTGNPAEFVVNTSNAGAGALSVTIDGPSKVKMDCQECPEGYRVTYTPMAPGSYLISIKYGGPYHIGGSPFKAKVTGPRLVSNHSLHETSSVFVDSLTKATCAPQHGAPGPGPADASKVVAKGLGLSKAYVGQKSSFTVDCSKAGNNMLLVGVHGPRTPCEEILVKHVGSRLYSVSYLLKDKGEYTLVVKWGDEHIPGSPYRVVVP
Method: As will be seen from examination of FIG. 3 and FIG. 4, the ratio of TLR2 to FLNA increased with administration of each of LTA-SA, PGN-SA and Ab42 at a statistically significant amount relative to the control (p<0.01). Those changes in expression of TLR2 relative to FLNA were each inhibited by the presence of the 1 or 10 nM Compound C0105 at a statistically significant amount relative to the control (p<0.01) and relative to the ligand used. See, FIG. 3B.
Postmortem frontal cortex tissues were gradually thawed (from −80° C. to −20° C.) and were sliced using a chilled McIlwain tissue chopper ([…]). […]
The resultant immunocomplexes were pelleted by centrifugation at 4° C. […] The content of a7nAChRs in 50% of the obtained anti-Ab42 immunoprecipitate was determined by Western blotting with monoclonal anti-a7nAChR antibodies. […]
The content of b-actin in resultant immunoprecipitates is then analyzed by immunoblotting using monoclonal anti-b-actin to illustrate even immunoprecipitation efficiency and loading. […]

[1] = tested on: mild-to-moderate AD patients; experiment: Clinical studies of sumifilam in Alzheimer's disease patients; assay type: in vivo, human
From the text: FIG. 7, in two panels as FIGS. 7A and 7B, graphically illustrates some of the results of a Phase 2b Clinical study of the effects of Compound C0105, now known as sumifilam, on 64 mild-to-moderate AD patients, mini-mental state examination (MMSE) value of ≥16≤26, age 50-85 years, with a key inclusion at screening of CFS Total tau/ab≥0.28. The patients were divided into three groups, and each group was given one of three tablet dosages twice daily for 28 days. One patient group received a placebo, another received tablets containing 50 mg of sumifilam and the third received tablets containing 100 mg of sumifilam. Lumbar puncture screening of CFS and blood were taken prior to any administration and at day 28. […] FIG. 7B repeats the results shown in FIG. 7A and includes results for the additional neuroinflammation markers YKL-40 (a glycoprotein produced by inflammatory, cancer and stem cells), interleukin-6 (IL-6), soluble triggering receptor expressed on myeloid cells 2 (sTREM2), albumin (a marker for blood-brain-barrier permeability) and IgG antibodies. Stronger significance levels occurred in the 100 mg group. Data are means±SEM. *p≤0.0001, #p≤0.001, †p<0.01 and +p<0.05 versus placebo. N=22, 18 and 19 for placebo, 50 mg and 100 mg, respectively. […]

With `CN1CCC2(CC1)NCC(=O)N2Cc1ccccc1` [Compound C0105M] the “Ligand-induced change in TLR2 relative to FLNA (TLR2/FLNA ratio)” value (FLNA-TLR2 association) was “inhibited”, the “Immunoinflammatory cytokines in treated patients” value ([1]; 50 or 100 mg twice daily, 28-day and 6-month studies) was “reduction in the immunoinflammatory cytokines” and the “Amount of HMGB1 in CSF” value ([1]; Phase 2b, 50 mg or 100 mg tablets twice daily for 28 days, p<0.001 relative to placebo) was “decreased significantly”.
